Reference: patent EP2257297B1, “COMPOUNDS FOR USE IN THE TREATMENT OF ACNE, SEBORRHOEA AND SEBHORROEIC DERMATITIS, OR FOR REDUCING SEBUM SECRETION” (priority 2008, dated 2009)

Each compound was assayed against T1, human MC5R (Homo sapiens, UniProt P33032) (assay: Human MC5R radioligand binding assay ([125I] NDP-MSH displacement, hMC5R membranes)). Conditions: not given.
T1 construct: purchased Perkin Elmer RBXMC5M400UA
Procedure, shortened: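 Bound ligand collected by filtration on PEI-soaked GF/A filters and counted. Data fitted to a single-site competition model with fixed Hill coefficient to give EC50.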

T1 sequence (P33032 whole entry): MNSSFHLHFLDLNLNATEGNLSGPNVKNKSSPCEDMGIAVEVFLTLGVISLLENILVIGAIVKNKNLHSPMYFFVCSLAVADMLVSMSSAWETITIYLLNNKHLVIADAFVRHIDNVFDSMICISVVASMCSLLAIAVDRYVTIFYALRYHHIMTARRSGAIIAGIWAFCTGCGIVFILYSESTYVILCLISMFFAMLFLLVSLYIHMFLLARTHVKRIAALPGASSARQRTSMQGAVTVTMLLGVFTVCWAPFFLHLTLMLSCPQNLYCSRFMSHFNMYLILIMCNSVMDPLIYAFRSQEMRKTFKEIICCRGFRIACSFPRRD

| IC50 [nM] | SMILES |
| --- | --- |
| < 10000 | CC[C@H](CN1CC[C@@H](CNC(=O)c2ccc(Cl)c(Cl)c2)N[C@@H](CCN)C1=O)C(C)C (racemic) [Compound 490, N-(((3S,5S)-3-(2-aminoethyl)-1-((S)-2-ethyl-3-methylbutyl)-2-oxo-1,4-diazepan-5-yl)methyl)-3,4-dichlorobenzamide] |
| < 100 | CC[C@H](CN1CC[C@H](CNC(=O)c2ccc3cc(Cl)ccc3c2)N[C@H](CC(C)(C)N2CCCCC2)C1=O)c1ccccc1 (racemic) [Compound 500, 6-chloro-N-(((3R,5R)-3-(2-methyl-2-(piperidin-1-yl)propyl)-2-oxo-1-((S)-2-phenylbutyl)-1,4-diazepan-5-yl)methyl)-2-naphthamide] |

Same assay, conditions: hMC5R assay as in Example 102; compounds tested as trifluoroacetate or hydrochloride salts, or as free base

| IC50 [nM] | SMILES |
| --- | --- |
| < 100 | O=C(/C=C/c1ccc(Cl)cc1)NC[C@@H]1CCN(CC(c2ccccc2)c2ccccc2)C(=O)[C@H](CCC(=O)N2CCCCC2)N1 [Compound 318, (E)-3-(4-chlorophenyl)-N-(((3S,5S)-1-(2,2-diphenylethyl)-2-oxo-3-(3-oxo-3-(piperidin-1-yl)propyl)-1,4-diazepan-5-yl)methyl)acrylamide] |
| < 100 | N=C(N)NCCC[C@@H]1N[C@H](CNC(=O)COc2ccc(Cl)cc2Cl)CCN(CC(c2ccccc2)c2ccccc2)C1=O [Compound 176, 2-(2,4-dichlorophenoxy)-N-(((3S,5S)-1-(2,2-diphenylethyl)-3-(3-guanidinopropyl)-2-oxo-1,4-diazepan-5-yl)methyl)acetamide] |
| < 100 | Cc1ccc(/C=C/C(=O)NC[C@@H]2CCN(CC(c3ccccc3)c3ccccc3)C(=O)[C@H](CCCNC(=N)N)N2)cc1 [Compound 171, (E)-N-(((3S,5S)-1-(2,2-diphenylethyl)-3-(3-guanidinopropyl)-2-oxo-1,4-diazepan-5-yl)methyl)-3-p-tolylacrylamide] |
| < 1000 | O=C(/C=C/c1ccc(Cl)cc1)NC[C@@H]1CCN(CC(c2ccccc2)c2ccccc2)C(=O)[C@H](CCNC(=O)C2CCCCC2)N1 [Compound 306, N-(2-((2S,7S)-7-(((E)-3-(4-chlorophenyl)acrylamido)methyl)-4-(2,2-diphenylethyl)-3-oxo-1,4-diazepan-2-yl)ethyl)cyclohexanecarboxamide] |
| < 100 | O=C(/C=C/c1ccc(Cl)cc1)NC[C@@H]1CCN(CC(c2ccccc2)c2ccccc2)C(=O)[C@H](CCCN2CCCCC2)N1 [Compound 262, (E)-3-(4-chlorophenyl)-N-(((3S,5S)-1-(2,2-diphenylethyl)-2-oxo-3-(3-(piperidin-1-yl)propyl)-1,4-diazepan-5-yl)methyl)acrylamide] |
| < 100 | N=C(N)NCCC[C@@H]1N[C@H](CNC(=O)/C=C/c2ccc(F)cc2)CCN(CC(c2ccccc2)c2ccccc2)C1=O [Compound 199, (E)-N-(((3S,5S)-1-(2,2-diphenylethyl)-3-(3-guanidinopropyl)-2-oxo-1,4-diazepan-5-yl)methyl)-3-(4-fluorophenyl)acrylamide] |
| < 100 | N=C(N)NCCC[C@@H]1N[C@H](CNC(=O)/C=C/c2cccs2)CCN(CC(c2ccccc2)c2ccccc2)C1=O [Compound 167, (E)-N-(((3S,5S)-1-(2,2-diphenylethyl)-3-(3-guanidinopropyl)-2-oxo-1,4-diazepan-5-yl)methyl)-3-(thiophen-2-yl)acrylamide] |
| < 1000 | N=C(N)NCCC[C@@H]1N[C@H](CNC(=O)Cc2ccc(Cl)cc2Cl)CCN(CC(c2ccccc2)c2ccccc2)C1=O [Compound 155, 2-(2,4-dichlorophenyl)-N-(((3S,5S)-1-(2,2-diphenylethyl)-3-(3-guanidinopropyl)-2-oxo-1,4-diazepan-5-yl)methyl)acetamide] |
| < 1000 | COc1cccc(/C=C/C(=O)NC[C@@H]2CCN(CC(c3ccccc3)c3ccccc3)C(=O)[C@H](CCCNC(=N)N)N2)c1 [Compound 180, (E)-N-(((3S,5S)-1-(2,2-diphenylethyl)-3-(3-guanidinopropyl)-2-oxo-1,4-diazepan-5-yl)methyl)-3-(3-methoxyphenyl)acrylamide] |
| < 1000 | NCCC[C@@H]1N[C@H](CNC(=O)c2ccc3ccccc3c2)CCN(CC(c2ccccc2)c2ccccc2)C1=O [Compound 63, N-(((3S,5S)-3-(3-aminopropyl)-1-(2,2-diphenylethyl)-2-oxo-1,4-diazepan-5-yl)methyl)-2-naphthamide] |
| < 10000 | NCCC[C@@H]1N[C@H](CNC(=O)C2CCN(c3ccccc3)C2=O)CCN(CC(c2ccccc2)c2ccccc2)C1=O (stereo partly drawn) [Compound 239, N-(((3S,5S)-3-(3-aminopropyl)-1-(2,2-diphenylethyl)-2-oxo-1,4-diazepan-5-yl)methyl)-2-oxo-1-phenylpyrrolidine-3-carboxamide] |
| < 1000 | CNCCC[C@@H]1N[C@H](CNC(=O)c2ccc3ccccc3c2)CCN(CC(c2ccccc2)c2ccccc2)C1=O [Compound 71, N-(((3S,5S)-1-(2,2-diphenylethyl)-3-(3-(methylamino)propyl)-2-oxo-1,4-diazepan-5-yl)methyl)-2-naphthamide] |
| < 1000 | NCC[C@@H]1N[C@H](CNC(=O)c2ccc(Cl)c(Cl)c2)CCN(CC(c2ccccc2)c2ccccc2)C1=O [Compound 280, N-(((3S,5S)-3-(2-aminoethyl)-1-(2,2-diphenylethyl)-2-oxo-1,4-diazepan-5-yl)methyl)-3,4-dichlorobenzamide] |
| < 100 | NCCC[C@@H]1N[C@H](CNC(=O)c2ccc(-n3cccc3)cc2)CCN(CC(c2ccccc2)c2ccccc2)C1=O [Compound 238, N-(((3S,5S)-3-(3-aminopropyl)-1-(2,2-diphenylethyl)-2-oxo-1,4-diazepan-5-yl)methyl)-4-(1H-pyrrol-1-yl)benzamide] |
| < 100 | N=C(N)NCCC[C@@H]1N[C@H](CNC(=O)/C=C/c2cccc(F)c2)CCN(CC(c2ccccc2)c2ccccc2)C1=O [Compound 173, (E)-N-(((3S,5S)-1-(2,2-diphenylethyl)-3-(3-guanidinopropyl)-2-oxo-1,4-diazepan-5-yl)methyl)-3-(3-fluorophenyl)acrylamide] |

More lines, now with the values behind:

| SMILES | IC50 [nM] |
| --- | --- |
| CN(C[C@@H]1CCN(CC(c2ccccc2)c2ccccc2)C(=O)[C@H](CCCN)N1)C(=O)c1ccc2cc(Br)ccc2c1 [Compound 60, N-(((3S,5S)-3-(3-aminopropyl)-1-(2,2-diphenylethyl)-2-oxo-1,4-diazepan-5-yl)methyl)-6-bromo-N-methyl-2-naphthamide] | < 10000 |
| CCC(CC)CN1CC[C@@H](CNC(=O)c2ccc(Cl)c(F)c2)N[C@@H](CCN)C1=O [Compound 351, N-(((3S,5S)-3-(2-aminoethyl)-1-(2-ethylbutyl)-2-oxo-1,4-diazepan-5-yl)methyl)-4-chloro-3-fluorobenzamide] | < 10000 |
| N=C(N)NCCC[C@@H]1N[C@H](CNC(=O)c2cc(Cl)cc(Cl)c2)CCN(CC(c2ccccc2)c2ccccc2)C1=O [Compound 154, 3,5-dichloro-N-(((3S,5S)-1-(2,2-diphenylethyl)-3-(3-guanidinopropyl)-2-oxo-1,4-diazepan-5-yl)methyl)benzamide] | < 1000 |
| NCC[C@@H]1N[C@H](CNC(=O)/C=C/c2ccc(Cl)cc2)CCN(Cc2cc(Cl)cc(Cl)c2)C1=O [Compound 326, (E)-N-(((3S,5S)-3-(2-aminoethyl)-1-(3,5-dichlorobenzyl)-2-oxo-1,4-diazepan-5-yl)methyl)-3-(4-chlorophenyl)acrylamide] | < 100 |
| N=C(N)NCCC[C@@H]1N[C@H](CNC(=O)c2ccc3cc(Br)ccc3c2)CCN(CC(c2ccccc2)c2ccccc2)C1=O [Compound 181, 6-bromo-N-(((3S,5S)-1-(2,2-diphenylethyl)-3-(3-guanidinopropyl)-2-oxo-1,4-diazepan-5-yl)methyl)-2-naphthamide] | < 10 |
| O=C(NC[C@@H]1CCN(Cc2cc(Cl)cc(Cl)c2)C(=O)[C@H](CN2CCCCC2)N1)c1ccc(Cl)c(Cl)c1 [Compound 367, 3,4-dichloro-N-(((3S,5S)-1-(3,5-dichlorobenzyl)-2-oxo-3-(piperidin-1-ylmethyl)-1,4-diazepan-5-yl)methyl)benzamide] | < 1000 |
| N=C(N)NCCC[C@@H]1N[C@H](CNC(=O)c2cc3ccccc3[nH]2)CCN(CC(c2ccccc2)c2ccccc2)C1=O [Compound 142, N-(((3S,5S)-1-(2,2-diphenylethyl)-3-(3-guanidinopropyl)-2-oxo-1,4-diazepan-5-yl)methyl)-1H-indole-2-carboxamide] | < 100 |
| NC[C@@H]1N[C@H](CNC(=O)c2ccc(Cl)c(Cl)c2)CCN(Cc2cc(Cl)cc(Cl)c2)C1=O [Compound 364, N-(((3S,5S)-3-(aminomethyl)-1-(3,5-dichlorobenzyl)-2-oxo-1,4-diazepan-5-yl)methyl)-3,4-dichlorobenzamide] | < 1000 |
| NCCCC[C@@H]1N[C@H](CNC(=O)c2cccc3ccccc23)CCN(Cc2ccc3ccccc3c2)C1=O [Compound 124, N-(((3S,5S)-3-(4-aminobutyl)-1-(naphthalen-2-ylmethyl)-2-oxo-1,4-diazepan-5-yl)methyl)-1-naphthamide] | < 10000 |
| CCC(CN1CC[C@@H](CNC(=O)c2ccc3ccccc3c2)N[C@@H](CCN)C1=O)c1ccccc1 (mixture of isomers) [Compound 37, (3S,5S)-3-(2-aminoethyl)-5-(N-2-naphthamidomethyl)-1-(2-phenylbutyl)-1,4-diazepan-2-one] | < 100 |
| O=C(NC[C@@H]1CCN(Cc2cc(Cl)cc(Cl)c2)C(=O)[C@H](CN2CCCC2)N1)c1ccc2ccccc2c1 [Compound 372, N-(((3S,5S)-1-(3,5-dichlorobenzyl)-2-oxo-3-(pyrrolidin-1-ylmethyl)-1,4-diazepan-5-yl)methyl)-2-naphthamide] | < 1000 |

Same assay, conditions: hMC5R binding assay as in Example 102; compounds tested as trifluoroacetate or hydrochloride salts, or as free base

| IC50 [nM] | SMILES |
| --- | --- |
| < 1000 | CC[C@@H](CN1CC[C@H](CNC(=O)c2ccc3cc(Cl)ccc3c2)N[C@H](CCN2CCCCC2)C1=O)c1ccccc1 [Compound 580, 6-chloro-N-(((3R,5R)-2-oxo-1-((R)-2-phenylbutyl)-3-(2-(piperidin-1-yl)ethyl)-1,4-diazepan-5-yl)methyl)-2-naphthamide] |
| < 10000 | CC[C@H](CN1CC[C@H](CNC(=O)c2ccc3cc(Cl)ccc3c2)N[C@H](CC(C)(C)N)C1=O)c1ccccc1 [Compound 494, N-(((3R,5R)-3-(2-amino-2-methylpropyl)-2-oxo-1-((S)-2-phenylbutyl)-1,4-diazepan-5-yl)methyl)-6-chloro-2-naphthamide] |
